Assay results: PMC5589751, “Synthesis, high-throughput screening and pharmacological characterization of β–lactam derivatives as TRPM8 antagonists” (Scientific Reports, 2017)
Where “and” joins values, the source holds several entries; their conditions need not be identical. Equal entries are not always repeated.

Tests used:
[1] = target: T1, TRPM8 (Rattus norvegicus, UniProt Q8R455); experiment: Ca2+ microfluorography (Fluo-4 NW), menthol-induced Ca2+ signal in HEK-CR1-TRPM8 cells; type: cell-based; settings: for % Block TRPM8 50 µM: 50 µM compound; for % Block TRPM8 50 µM / IC50: agonist 100 µM menthol, HEK-CR1-TRPM8 cells
T1 construct: expressed in transfected cells
T1 sequence (Q8R455 whole entry): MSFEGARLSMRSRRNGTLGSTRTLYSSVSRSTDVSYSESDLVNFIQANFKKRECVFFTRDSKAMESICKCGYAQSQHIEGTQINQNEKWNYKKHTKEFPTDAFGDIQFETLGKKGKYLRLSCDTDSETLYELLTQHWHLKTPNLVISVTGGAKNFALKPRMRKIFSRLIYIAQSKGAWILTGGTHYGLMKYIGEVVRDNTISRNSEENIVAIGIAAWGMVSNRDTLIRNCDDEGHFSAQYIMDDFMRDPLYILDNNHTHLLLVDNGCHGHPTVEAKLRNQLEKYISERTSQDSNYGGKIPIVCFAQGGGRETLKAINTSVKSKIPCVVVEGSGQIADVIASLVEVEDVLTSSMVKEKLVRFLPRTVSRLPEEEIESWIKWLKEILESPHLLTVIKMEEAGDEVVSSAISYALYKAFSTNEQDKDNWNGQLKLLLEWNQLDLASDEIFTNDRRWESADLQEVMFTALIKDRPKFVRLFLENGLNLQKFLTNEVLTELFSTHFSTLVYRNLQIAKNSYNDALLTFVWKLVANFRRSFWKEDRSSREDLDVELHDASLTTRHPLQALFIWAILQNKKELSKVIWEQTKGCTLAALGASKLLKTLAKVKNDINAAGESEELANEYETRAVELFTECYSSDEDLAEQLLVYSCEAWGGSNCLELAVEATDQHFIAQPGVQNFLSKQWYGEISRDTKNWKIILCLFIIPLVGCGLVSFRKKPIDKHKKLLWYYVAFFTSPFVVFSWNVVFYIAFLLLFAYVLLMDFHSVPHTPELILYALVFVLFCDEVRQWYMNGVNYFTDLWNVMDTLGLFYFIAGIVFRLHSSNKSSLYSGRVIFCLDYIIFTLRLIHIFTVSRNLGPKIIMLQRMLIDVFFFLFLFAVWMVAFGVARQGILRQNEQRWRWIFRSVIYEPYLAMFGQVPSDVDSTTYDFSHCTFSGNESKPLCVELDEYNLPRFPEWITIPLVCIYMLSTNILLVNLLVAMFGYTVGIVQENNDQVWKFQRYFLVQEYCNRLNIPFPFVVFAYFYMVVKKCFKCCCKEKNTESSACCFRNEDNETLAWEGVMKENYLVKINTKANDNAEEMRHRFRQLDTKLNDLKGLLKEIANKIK
Procedure: (§1) All compounds were tested at two different concentrations (50 and 5 µM) on TRPM8 and TRPV1 channels stably expressed in HEK and SH-SY5Y cell lines, respectively. The agonist induced intracellular Ca^2+ signals were measured using a fluorescent Ca^2+ indicator, in the absence and in the presence of test compounds. […] The obtained results were compared to those of 68 (AMTB, TRPM8 antagonist) and ruthenium red (TRPV1 antagonist). The IC50 values for the assay on TRPM8 were also calculated.
(§2) For fluorescence assays, cells expressing TRP channels (SH-SY5Y-TRPV1 and HEKCR1-TRPM8) were seeded in 96-well plates (Corning Incorporated, Corning, NY) at a cell density of 40,000 cells 2 days before treatment. The day of treatment the medium was replaced with 100 µL of the dye loading solution Fluo-4 NW supplemented with probenecid 2.5 mM. Then the compounds dissolved in DMSO were added at the desired concentrations and the plate(s) were incubated at 37 °C in a humidified atmosphere of 5% CO2 for 60 minutes.
(§3) The fluorescence was measured using instrument settings appropriate for excitation at 485 nm and emission at 535 nm (POLARstar Omega BMG LABtech). […] The corresponding antagonist
(§4) (10 µM Ruthenium Red forTRPV1 and 10 µM 68 for TRPM8) was added for the blockade. The changes in fluorescence intensity were recorded during 15 cycles more. […] The blocking percentage was calculated as follow (Eq. 1):1 %TRPBlockedResponse=(1−Fo−Fi/FCo−FCi)∗100 where Fo is the fluorescence after the addition of menthol in the presence of the compound, Fi is the fluorescence before the addition of menthol in the presence of the compound, FCo is the fluorescence after the addition of menthol in the absence of the compound, FCi is the fluorescence before the addition of menthol in the absence of the compound. To guarantee that our results were useful we only used assays with a Z-factor higher than 0.5.
(§5) The statistical Z-factor to determine the quality of the HTS experiment as was calculated using the equation 2:2 Z‐factor=1−3∗(SDmax+SDmin)/Meanmax−Meanmin where: Meanmax is the mean of the maximum fluorescence in the presence of agonist, SDmax is the standard deviation of the maximum fluorescence in the presence of agonists, Meanmin is the mean of the maximum fluorescence in the presence of agonist and antagonist and SDmin is the standard deviation of the maximum fluorescence in the presence of agonist and antagonist.

[2] = target: TRPV1 (Rattus norvegicus, UniProt O35433); experiment: Ca2+ microfluorography (Fluo-4 NW), capsaicin-induced Ca2+ signal in SH-SY5Y-TRPV1 cells; type: cell-based; settings: for % Block TRPV1 50 µM: 50 µM compound, agonist 10 µM capsaicin, SH-SY5Y-TRPV1 cells
TRPV1, sequence (O35433 whole entry): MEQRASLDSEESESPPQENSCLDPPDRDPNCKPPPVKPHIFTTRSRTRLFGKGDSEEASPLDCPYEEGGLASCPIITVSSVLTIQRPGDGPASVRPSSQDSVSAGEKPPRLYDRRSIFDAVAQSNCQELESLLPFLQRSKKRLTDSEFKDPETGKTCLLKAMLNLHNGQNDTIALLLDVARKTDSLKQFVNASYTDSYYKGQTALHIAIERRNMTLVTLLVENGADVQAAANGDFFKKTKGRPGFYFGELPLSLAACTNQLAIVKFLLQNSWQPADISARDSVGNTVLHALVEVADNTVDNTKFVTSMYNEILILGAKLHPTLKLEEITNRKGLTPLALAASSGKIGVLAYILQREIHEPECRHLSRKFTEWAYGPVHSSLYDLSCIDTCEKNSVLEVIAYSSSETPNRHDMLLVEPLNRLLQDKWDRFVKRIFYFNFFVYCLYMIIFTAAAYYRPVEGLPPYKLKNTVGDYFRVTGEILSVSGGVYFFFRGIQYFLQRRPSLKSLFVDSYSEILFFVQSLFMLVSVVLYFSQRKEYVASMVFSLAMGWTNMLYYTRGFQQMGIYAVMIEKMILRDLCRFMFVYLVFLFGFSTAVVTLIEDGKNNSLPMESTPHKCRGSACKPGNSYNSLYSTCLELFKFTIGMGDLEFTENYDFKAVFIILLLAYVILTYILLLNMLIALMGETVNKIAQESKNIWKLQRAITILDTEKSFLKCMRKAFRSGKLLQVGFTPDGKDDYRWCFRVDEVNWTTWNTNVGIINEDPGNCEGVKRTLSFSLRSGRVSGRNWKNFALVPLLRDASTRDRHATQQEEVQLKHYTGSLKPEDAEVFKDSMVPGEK
Procedure: as §1, §2, §3, §4, §5

[3] = Kinetic solubility; type: physicochemical

Row | SMILES | % Block TRPM8 50 µM [1] | IC50 [1] [µM] | % Block TRPV1 50 µM [2] [%] | further results
1 | COC(=O)C(CCN1C(=O)CC1(Cc1ccccc1)C(=O)OC)NC(=O)OC(C)(C)C (stereo not drawn) [Compound 39] | 49.2 ± 15.3% | 50.2 ± 1.3 | – | –
2 | COC(=O)C1(C)CC(=O)N1CCC(NC(=O)OCc1ccccc1)C(=O)OC(C)(C)C (stereo not drawn) [Compound 44] | 21.3 ± 9.8% | 339.8 ± 1.4 | 26.8 ± 4.8 | –
3 | COC(=O)C(CCCN1C(=O)CC1(Cc1ccccc1)C(=O)OC(C)(C)C)NC(=O)OCc1ccccc1 (stereo not drawn) [Compound 47] | 94.9 ± 19.7% | – | 49.8 ± 7.2 | –
4 | CC(C)(C)OC(=O)NC(CCN1C(=O)CC1(Cc1ccccc1)C(=O)O)C(=O)O (stereo not drawn) [Compound 51] | 41.7 ± 8.7% | 74.1 ± 3.6 | 15.9 ± 4.3 | –
5 | CC(C)(C)OC(=O)NC(CCCN1C(=O)CC1(Cc1ccccc1)C(=O)O)C(=O)O (stereo not drawn) [Compound 53] | 40.9 ± 10.3% | 68.4 ± 8.5 | 20.6 ± 9.2 | –
6 | COC(=O)[C@H](C)NC(=O)[C@H](CCN1C(=O)C[C@@]1(Cc1ccccc1)C(=O)N[C@@H](C)C(=O)OC)NC(=O)OC(C)(C)C [Compound 57b] | 44.0 ± 16.5% | 70.4 ± 1.6 | – | –
7 | COC(=O)[C@H](CCCN1C(=O)CC1(Cc1ccccc1)C(=O)N[C@H](C)C(=O)OC)NC(=O)OCc1ccccc1 (stereo partly drawn) [Compound 59] | 36.2 ± 22.3% | 81.2 ± 4.8 | 19.4 ± 5.1 | –
8 | CC(C)(C)OC(=O)NC(CCN1C(=O)CC1(Cc1ccccc1)C(=O)Nc1cccnc1)C(=O)Nc1cccnc1 (stereo not drawn) [Compound 66] | 64.6 ± 13.2% | 5.7 ± 3.4 | 22.8 ± 3.7 | Kinetic solubility ([3]; 1% DMSO): > 100 µM; Kinetic solubility ([3]; 5% DMSO): > 500 µM; improved solubility respect to 41 ([3]; ratio to compound 41): > 50 fold; improved solubility respect to 62 ([3]; ratio to compound 62): > 5 fold
9 | CC(C)(C)OC(=O)N[C@@H](CCN1C(=O)C[C@]1(Cc1ccccc1)C(=O)Nc1ccncc1)C(=O)Nc1ccncc1 [Compound 67a] | 43.5 ± 9.8% | 38.1 ± 6.3 | 36.3 ± 10.8 | –
10 | CC(C)(C)OC(=O)N[C@@H](CCN1C(=O)C[C@@]1(Cc1ccccc1)C(=O)Nc1ccncc1)C(=O)Nc1ccncc1 [Compound 67b] | 52.3 ± 7.6% | 7.26 ± 1.9 | 31.7 ± 4.5 | –
11 | N.N.N.N.N.N.N.N.N.N.N.N.N.N.[Cl-].[Cl-].[Cl-].[Cl-].[Cl-].[Cl-].[O-2].[O-2].[Ru+3].[Ru+3].[Ru+4] [Ruthenium red, reference compound] | – | – | 100 | IC50 ([2]; printed in the TRPM8 IC50 column, footnote a: evaluated in TRPV1): 0.015 µM
12 | CC1CCC(C(C)C)C(O)C1 (stereo not drawn) [menthol, reference compound] | – | – | – | EC50 ([1]; agonist, in our assay): 137 µM

More lines, main results first:

Row | % Block TRPM8 50 µM [1] | IC50 [1] [µM] | % Block TRPV1 50 µM [2] [%] | SMILES | further results
13 | 75% | 6.8 ± 1.02 | 42.4 ± 5.3 | COC(=O)C1(Cc2ccccc2)CC(=O)N1CCC(NC(=O)OC(C)(C)C)C(=O)OCc1ccccc1 (stereo not drawn) [Compound 40] | –
14 | 82% and 82.2 ± 29.0% | 6.2 ± 1.6 | 51.7 ± 15.4 | COC(=O)C1(Cc2ccccc2)CC(=O)N1CCC(NC(=O)OCc1ccccc1)C(=O)OC(C)(C)C (stereo not drawn) [Compound 42] | –
15 | 80.5 ± 15.8% | 36.8 ± 3.1 | – | COC(=O)C1(C)CC(=O)N1CC[C@H](NC(=O)OC(C)(C)C)C(=O)OCc1ccccc1 (stereo partly drawn) [Compound 43] | –
16 | 86.5±19.6% | 1.7 ± 2.7 | 59.4 ± 10.5 | CC(C)(C)OC(=O)NC(CCCN1C(=O)CC1(Cc1ccccc1)C(=O)OCc1ccccc1)C(=O)OCc1ccccc1 (stereo not drawn) [Compound 46] | reduction of TRPM8 blockade activity compared with homologue 41 ([1]; longer N-alkyl chain, 46 versus 41): up to 4 fold
17 | 50.7 ± 9.5% | 48.4 ± 18.6 | 18.3 ± 16.2 | COC(=O)[C@H](C)NC(=O)C1(Cc2ccccc2)CC(=O)N1CCC[C@H](NC(=O)OCc1ccccc1)C(=O)OC (stereo partly drawn) [Compound 58] | –
18 | 71.3 ± 18.8% | 32.6 ± 1.8 | – | COC(=O)C(C)NC(=O)C1(Cc2ccccc2)CC(=O)N1CCCC(C(=O)OC)N(C)C(=O)OCc1ccccc1 (stereo not drawn) [Compound 60] | –
19 | 78.3 ± 25.0% | 27 ± 1.7 | – | CNC(CCCN1C(=O)CC1(Cc1ccccc1)C(=O)NC(C)C(=O)OC)C(=O)OC (stereo not drawn) [Compound 61] | –
20 | 70.0 ± 18.6% | 7.1 ± 0.3 | 42.5 ± 16.2 | CC(C)(C)OC(=O)N[C@@H](CCN1C(=O)C[C@]1(Cc1ccccc1)C(=O)NCc1ccccc1)C(=O)NCc1ccccc1 [Compound 62a] | Kinetic solubility ([3]; 1% DMSO): 63 µM and 38 mg/L; Kinetic solubility ([3]; 5% DMSO): 92 µM and 55 mg/L
21 | 70.4 ± 15.2% | 11.5 ± 2.7 | 26.9 ± 9.2 | CC(C)(C)OC(=O)NC(CCCN1C(=O)CC1(Cc1ccccc1)C(=O)NCc1ccccc1)C(=O)NCc1ccccc1 (stereo not drawn) [Compound 64] | –
22 | 100% | 7 ± 1 | – | Cc1cccc(COc2ccccc2C(=O)N(CCCN)Cc2cccs2)c1 [Compound 68, reference compound] | –
